# Test results: a melting point compilation (Tetko et al.; mined from patent text by program, amines drawn as free bases though some values may be those of a salt)
row,SMILES,melting point
1,Cc1cc2c([nH]c1=O)C(=O)c1ccccc1C2=O,> 300 °C
2,O=[N+]([O-])c1cccc2c1CN(Cc1ccccc1)C2,77.5 to 78 °C
3,O=C1c2cc(Cl)c(Cl)cc2C(O)N1CCO[N+](=O)[O-] (stereo not drawn),145 to 147 °C
4,COc1ccc(C(=O)NCc2ccc(C)n2CCC#N)cc1OC,175 to 176 °C
5,CCCCC(=O)N[C@H]1CC[C@H](CCN2CCN(c3nccc4c3OCC4)CC2)CC1,168 °C
6,CCC1CC(=O)N(Cc2cccc(C(=O)NC3CCCC3)c2)N=C1c1ccc(OC)c(OC)c1 (stereo not drawn),54 °C
7,COc1c(C2CCN(CCCCNC(=O)c3cc(-c4ccc(C#N)cc4)nn3CCO)CC2)ccc2c1CCCC2,152 °C
8,NC(=O)N1C(=O)C(=C(OC(=O)COCc2ccccc2)c2cccs2)c2cc(F)c(Cl)cc21,150 to 175 °C
9,COCCOc1cc(NC(=O)OC(C)(C)C)c(NC(=O)CC(=O)c2cccc(-n3ccnc3)c2)cc1-c1ccc(F)cc1,61 to 63 °C
10,CC(=O)N1c2ccc(F)cc2CC1C#N (stereo not drawn),93 to 95 °C
11,O=C1c2cc(Oc3ccc(Cl)cc3)ccc2CCN1Cc1cccnc1,93.5 to 94.5 °C
12,CC(=O)Oc1ccc2c(c1)CCC1C2CCC2(C)C(OC(C)=O)CCC12 (stereo not drawn),128 to 129 °C
13,COC(=O)Cc1csc2c(O)cccc12,147 to 148 °C
14,C[Si](C)(CC[Si](C)(C)c1ccc(C(F)(F)F)cc1)c1ccc(C(F)(F)F)cc1,58 to 59 °C
15,CC1CN(c2c(F)cc3c(=O)c(C(=O)O)cn(C)c3c2C(F)(F)F)CCN1c1ncccn1 (stereo not drawn),283 to 284 °C
16,Cc1cc(C)c(CP(Cc2c(C)cc(C)cc2C)Cc2c(C)cc(C)cc2C)c(C)c1,148 to 158 °C
17,COc1ccc(C(=O)C=Cc2ccc(C(C)(C)C)cc2)cc1,114 to 116 °C
18,O=C1CCC(c2ccccc2Cl)=NN1,114 to 116 °C
19,CCOC(=O)/C(=C/c1ccc(OC)c(OC2CCCC2)c1)c1ccncc1,109 to 110 °C
20,COC(=O)c1nsc2nc3ccccc3n12,208 to 209 °C
21,CCCCCCCCCCCCNC(=O)c1cc(Br)c(OCCNC(=O)OC)c(-c2cccc(C(F)(F)F)c2)c1,79.6 to 80.5 °C
22,CCCc1cn(CC(=O)OCC)nc1OCc1ccc2ccccc2n1,82 to 83 °C
23,CCc1nc2c(N)nc3ccccc3c2n1CCCC#Cc1ccccn1,188 to 192 °C
24,O=C(O)c1ccc2c(c1)nc(-c1ccc(Oc3cccc(Br)c3)cc1)n2C1CCCCC1,255 to 256 °C

row,SMILES,melting point
1,COc1cccc2c(C(=O)c3ccc(OC4CCCCC4N4CCCCC4)cc3)c(-c3ccc(OCCN4CCCC4)cc3)sc12 (stereo not drawn),66 to 69 °C
2,O=C(N[C@@H](CS(=O)(=O)c1ccc(Oc2ccccc2)cc1)C(=O)NO)OCc1ccccc1,195 to 202 °C
3,Cc1ccc(S(=O)(=O)NC(=O)C(C)(NC=O)C(C)C)cc1 (stereo not drawn),131 to 135 °C
4,Cc1ccc(-c2ccc(/C=C/C(=O)O)s2)cc1,223 to 225 °C
5,CC(=O)OCC1Cc2c(c3cccnc3n(-c3ccccc3)c2=O)O1 (stereo not drawn),207 to 208 °C
6,C#CCOc1cc(-n2nnn(CC)c2=O)c(Cl)cc1F,88 to 89 °C
7,CCOCc1nc2c(N)nc3ccc(OCc4ccccc4)cc3c2n1CC(C)C,183 to 184 °C
8,CN1C2CCCC1CC(NC(=O)c1cccc3oc(-c4ccc(F)cc4)nc13)C2 (stereo not drawn),197 to 199 °C
9,COc1cccc2c1Sc1ccc(C(C)C(N)=O)cc1C(=O)C2 (stereo not drawn),210 to 211 °C
10,NC(=O)CN1CCC(C(=O)N2CCN3C(=O)OC(c4ccccc4)(c4ccccc4)C3C2)CC1 (stereo not drawn),253 to 255 °C
11,CCOC(=O)c1ccc(NCc2ccc(Cl)s2)cc1,108 to 109 °C
12,CCOC(=O)CCCNCc1nn2c(-c3ccc(OC)cc3)nnc2c2ccccc12,103 to 105 °C
13,Cc1ccc2c(c1)S(=O)CC(COC(=O)Nc1ccccc1)(COC(=O)Nc1ccccc1)C2=O (stereo not drawn),65 to 73 °C
14,CCC(CC)c1ccc(Cl)c2nc3n(c12)CCN3C(=O)c1ccc(Cl)nc1,205 to 207 °C
15,Cc1cc(C2=NNC(C)(C#N)Cc3cc4c(cc32)OCO4)ccc1[N+](=O)[O-] (stereo not drawn),148 to 151 °C
16,CC(=O)Oc1ccc(-c2ccccc2)cc1C1(OC(C)=O)C(=O)c2ccccc2C1=O,196 to 198 °C
17,CN1Cc2cccnc2N(c2ccc(F)cc2)C1=O,212 to 213 °C
18,CCC(CC)c1ccc(-c2ccco2)c2nc(Oc3ccc(Cl)cc3Br)n(C)c12,159 to 162 °C
19,CC(C)c1c(O)cccc1O,79 to 82 °C
20,CN(C(=O)C(C)(C)N1C(=O)c2ccccc2C1=O)C(c1ccc(F)cc1)c1ccc(F)cc1,169 to 171 °C
21,CCOC(=O)C1=CC=C2C(=CNN2CC)N1NN=C(C)CC#N,190 to 191 °C
22,CCC1CCC(=O)C=C1c1ccc(OCC(=O)O)c(Cl)c1Cl (stereo not drawn),164 to 165 °C
23,CCOC(=O)CNC(=O)CCN(C(=O)c1ccc(Cl)cc1)c1ccc(OC)cc1,87 to 89 °C
24,COc1cccc(-c2nc3n(n2)CCc2cc(OC)ccc2-3)c1,101 to 103 °C
